Laboratory results from US10086010B2 (STC.UNM, priority 2014, dated 2018).
Where two headings read alike, the source gives them in different places.

Key:
[1] = test system: HT-29 cells; test: WST-1 cell growth/viability assay, HT-29; assay type: cell-based, human; settings: for effect of PARP inhibitor on the reduction in succinate-tetrazolium reductase activity by 5-FU and hmUdR: inhibitor added simultaneously with 5-FU and hmUdR; for GI50: Homo sapiens, HT-29, 72 h, 72 hours
Experimental: Indicated concentrations of drugs were added to wells one day after seeding. […] Cell proliferation was quantitated by measuring 450 nm absorbance and 600 nm as a background. All assays were performed in triplicate. […] The minimal combination index […] for each cell line was obtained from the isobologram parameters.

[2] = test system: HT-29 cells; test: Alkaline comet assay (single-strand breaks); assay type: cell-based, human; settings: 48 h; for number of DNA single-strand breaks: 0.5 μM 5-FU and/or 5 μM hmUdR
Experimental: (§1) After incubation for indicated time periods (12-48 h), the cells were trypsinized and washed in PBS. For time course experiments, cells harvested at each time point were stored in 10% DMSO/40% DMEM/50% FBS at −80° C. until slide processing. Approximately 5,000 cells were spread in 0.9% low-melting point agarose/PBS on CometSlide (Trevigen), and chilled at 4° C. in the dark for 20 min.
For alkaline comet assay, slides were soaked in precooled lysis buffer containing 2.5 M NaCl/100 mM EDTA/10 mM Tris/1% sarkosyl/1% Triton X-100 at 4° C. for 45 min, followed by soaking in precooled 300 mM NaOH/1 mM EDTA at 4° C. for 45 min. Subsequently, slides were electrophoresed in 300 mM NaOH/1 mM EDTA at 1.4 V/cm for 20 min at 4° C., washed in 70% ethanol for 5 min, and allowed to dry in the dark. Cellular DNA was stained with 1×SYBR Green I (Molecular Probes) 30 min before analysis with a fluorescence microscope. Alkaline comet assays were performed in triplicate and more than 30 comets for each condition were photographed at the Light Microscope Facility at Fox Chase Cancer Center, and analyzed by CometScore software (TriTek).

[3] = test system: HT-29 cells; test: Neutral comet assay (double-strand breaks); assay type: cell-based, human; settings: 0.5 μM FU and/or 5 μM hmUdR, 48 h
Experimental: as §1
For neutral comet assay, slides were soaked in precooled lysis buffer at 4° C. for 30 min, followed by washing in precooled 1×TBE buffer (90 mM Tris-borate, pH8.3, 2 mM EDTA). Slides were electrophoresed in 1×TBE buffer at 2 V/cm for 20 min at 4° C., rinsed in deionized water, washed in 70% ethanol for 5 min, and allowed to dry in the dark. Subsequently, slides were processed as above for DNA staining and comet analyses. Neutral comet assays were conducted in duplicate, in each of which more than 60 comets for each condition were analyzed.

[4] = test system: HT-29 cellular DNA; test: Quantitation of 5-FU and hmUdR incorporated into cellular DNA; assay type: cell-based, human; settings: at 48 h
Experimental: [6-^3H]-5-FU (18 Ci/mmol) and of [^3H]-hmUdR (10 Ci/mmole) were purchased from Moravek Biochemicals. […] At 24 or 48 h after drug addition, cells were washed with PBS and their DNA was recovered with Trizol (Invitrogen) according to the manufacturer's instruction. Subsequently the recovered DNA was quantitated by 260 nm absorbance, and its radioactivity was measured by liquid scintillation counting.

[5] = test system: HT-29 cells; test: Cell cycle analysis by flow cytometry; assay type: cell-based, human
Experimental: HT-29 cells that were seeded at 2×10^6 cells/plate in 10 cm dishes and incubated with 20 ng/ml nocodazole for 18 h. […] The synchronized cells were washed with PBS prior to the addition of fresh medium containing the indicated nucleosides and/or bases.
Cells grown in 10 cm dishes were trypsinized, spun down and suspended in 10 ml PBS containing 0.5% FBS. […], the cells were resuspended in 0.5 ml PBS/0.5% FBS, and fixed in 5 ml 70% ethanol at −20° C. […] and washing with 10 ml PBS/0.5% FBS, the cells were suspended in 1.5 ml PBS/0.5% FBS containing 10 μg/ml propidium iodide and 50 μg/ml RNase A, and incubated at 37° C. for 30 min. Cell cycle distribution was analyzed with a FACScan flow analyzer (Becton Dickinson).

[6] = test system: human CRC HT-29 cells; test: Cell growth assay, Example 2; assay type: cell-based
[7] = test system: HT-29 cells expressing GFP-H2B; test: Time-lapse microscopy of cell divisions; assay type: cell-based, human; settings: 0.5 μM 5-FU and/or 5 μM hmUdR
Experimental: HT-29 cells were infected with a retroviral vector for expression of […] histone H2B. HT-29 cells expressing GFP-H2B were seeded at 2×10^5 cells/well in 6-well plates. On the following day, drug treatments were initiated and cell proliferation was monitored by time-lapse microscopy. Image acquisition was done at the Light Microscope Facility at Fox Chase Cancer Center using phase-contrast and GFP-specific fluorescence microscopy (Nikon TE2000S) controlled by Metamorph (Molecular Devices). Images were captured at a rate of one frame per 15 minutes for 60 hours, in which cells were kept at 37° C. Images were captured from 10 areas per well. The number of cell divisions that occurred in each area was counted for the first 24 h and the second 24 h periods.

[8] = test system: HT-29 cells; test: CyQUANT cell proliferation assay; assay type: cell-based, human; settings: 3AB present with 5-FU and hmUdR for 72 h
Experimental: Cell proliferation assays measuring genomic DNA were carried out using the CyQUANT kit (Invitrogen). In these experiments, the cells after drug treatments were replated to grow in the absence of the drugs for six days, and their nucleic acids was quantitated by CyQUANT assay. These assays were also conducted in triplicate.

[9] = test system: PARP1; test: Immunoblot detection of PARP1 cleavage; assay type: cell-based, human; settings: 5-FU and hmUdR 72 h; control 50 μM LY294002 1 h followed by 4 h 100 μg/ml TRAIL
Experimental: After […] on ice, cells were scraped and […] for 10 min at 4° C. The supernatant was recovered. This whole cell extract (50 μg protein) was subjected to SDS-containing polyacrylamide gel electrophoresis, and transferred to Immobilon-P membrane (Millipore). For detection of poly(ADP-ribose), the nuclear pellet was recovered after removing the whole cell extract as prepared above except that the lysis buffer was supplemented with 50 μM ethacridine, an inhibitor of poly(ADP-ribose) glycohydrolase. 10 μg protein of the nuclear pellet was subjected to gel electrophoresis and transfer to membrane as described above. Primary antibodies used in this study were anti-PARP1 monoclonal mouse antibody (Trevigen), anti-p62 polyclonal rabbit antibody (Santa Cruz Biotechnology), anti-LC3 polyclonal rabbit antibody (Novus Biologicals), anti-β-actin monoclonal mouse antibody (Sigma), and anti-PCNA monoclonal antibody (PC10; Santa Cruz Biotechnology), anti-poly(ADP-ribose) mouse monoclonal antibody (Tulip Biolabs). […] Immunoblot signals were detected either by Odyssey Imaging System (LI-COR Biotechnology) or by exposure of X-ray films to the membrane soaked in ECL reagent (GE Healthcare).

[10] = 5 mM caffeine for the last 24 h
[11] = 0.5 μM 5-FU + 5 μM hmUdR, WST-1

O=Cc1cn([C@H]2C[C@H](O)[C@@H](CO)O2)c(=O)[nH]c1=O [foUdR, 5-formyl-2′-deoxyuridine]
activity with 5-FU relative to hmUdR ([1]; HT-29, 72 hours): comparable
enhancement of 5-FU activity / synergy with 5-FU ([1]; HT-29, 72 hours): acted synergistically

C[C@]1(c2nc3c(C(N)=O)cccc3[nH]2)CCCN1 [ABT-888]
effect of PARP inhibitor on the reduction in succinate-tetrazolium reductase activity by 5-FU and hmUdR [1]: partially corrected

O=c1ccn([C@H]2C[C@H](O)[C@@H](CO)O2)c(=O)[nH]1 [UdR, 2′-deoxyuridine]
enhancement of 5-FU activity / synergy with 5-FU ([1]; HT-29, 72 hours): neither UdR nor heUdR significantly enhanced

O=c1[nH]c(=O)n([C@H]2C[C@H](O)[C@@H](CO)O2)cc1O [hUdR, 5-hydroxy-2′-deoxyuridine]
enhancement of 5-FU activity / synergy with 5-FU ([1]; HT-29, 72 hours): to a lesser extent, hUdR (FIG. 5E) acted synergistically

O=c1[nH]cc(F)c(=O)[nH]1 [5-FU, 5-fluorouracil]
GI50 ([1]; read-out: GI50 of HT-29 cells for 5-FU, 5-FU alone): 19 µM
GI50 ([1]; read-out: GI50 of HT-29 cells for 5-FU, combined with hmUdR): < 0.1 µM
number of DNA single-strand breaks [2]: did not significantly increase
number of double strand breaks [3]: no significant effect
incorporation of 5-FU into cellular DNA in the presence of hmUdR [4]: decreased
cells accumulated in S phase ([5]; unsynchronized HT-29 cells, 0.5 μM 5-FU and/or 5 μM hmUdR, 48 h): 52%
effect on HT-29 cell growth of increasing concentration in the absence of fdU [6]: minimal effect

O=c1[nH]c(=O)n([C@H]2C[C@H](O)[C@@H](CO)O2)cc1CO [hmUdR, 5-Hydroxymethyl-2′-deoxyuridine]
number of DNA single-strand breaks [2]: did not significantly increase
number of double strand breaks [3]: increased
cell cycle distribution ([5]; unsynchronized HT-29 cells, 5 μM hmUdR alone, 48 h): did not change the cell cycle distribution
number of cell divisions per view field, second 24 h period relative to first 24 h period [7]: 1.4±0.2 times

O=c1[nH]c(=O)n([C@H]2C[C@H](O)[C@@H](CO)O2)cc1CCO [heUdR, 5-hydroxyethyl-2′-deoxyuridine]
enhancement of 5-FU activity / synergy with 5-FU ([1]; HT-29, 72 hours): neither UdR nor heUdR significantly enhanced

Cn1c(=O)c2c(ncn2C)n(C)c1=O [caffeine]
effect of caffeine on the S phase arrest induced by 5-FU alone [5, 10]: abolished
effect of caffeine on the S phase arrest induced by the combination of 5-FU and hmUdR [5, 10]: resistant
effect of caffeine on the G2/M arrest of cells incubated with 3AB, 5-FU and hmUdR ([5]; unsynchronized HT-29 cells): partially released the G2/M arrest

O=c1[nH]cc(CO)c(=O)[nH]1 [5-hydroxymethyluracil]
enhancement of 5-FU activity / synergy with 5-FU ([1]; HT-29, 72 hours): did not significantly enhance

CN1C(=O)C(Cc2c[nH]c3ccccc23)NC1=S (stereo not shown) [Nec-1]
effect of necroptosis inhibitor on the growth inhibition effect of 5-FU and hmUdR [1, 11]: did not reduce

COC(=O)CC(NC(=O)C(NC(=O)c1ccc2ccccc2n1)C(C)C)C(=O)COc1c(F)cccc1F (stereo not shown) [QVD, Quinolyl-valyl-O-methylaspartyl-[-2,6-difluorophenoxy]-methyl ketone]
effect of caspase inhibitor on the growth inhibition effect of 5-FU and hmUdR [1, 11]: did not diminish

NC(=O)c1cccc(N)c1 [3AB, 3-aminobenzamide]
effect of PARP inhibitor on the reduction in succinate-tetrazolium reductase activity by 5-FU and hmUdR [1]: partially corrected
effect of 3AB on the number of strand breaks caused by 5-FU and hmUdR ([2]; 3 mM 3AB, 0.5 μM 5-FU, 5 μM hmUdR): significantly decreased
effect of 3AB on the S phase arrest induced by 5-FU and hmUdR ([5]; 3 mM 3AB added simultaneously with 0.5 μM 5-FU and 5 μM hmUdR): enabled most cells to progress through S phase to G2/M
rescue of the effect of 5-FU and hmUdR on cell proliferation (CyQUANT) [8]: did not rescue

B1: TRAIL: used with LY294002 as positive control for PARP1 cleavage; known to cause apoptosis (protein, UniProt P50591 1-281, looked up)
Tumor necrosis factor ligand …: MAMMEVQGGPSLGQTCVLIVIFTVLLQSLCVAVTYVYFTNELKQMQDKYSKSGIACFLKEDDSYWDPNDEESMNSPCWQVKWQLRQLVRKMILRTSEETISTVQEKQQNISPLVRERGPQRVAAHITGTRGRSNTLSSPNSKNEKALGRKINSWESSRSGHSFLSNLHLRNGELVIHEKGFYYIYSQTYFRFQEEIKENTKNDKQMVQYIYKYTSYPDPILLMKSARNSCWSKDAEYGLYSIYQGGIFELKENDRIFVSVTNEHLIDMDHEASFFGAFLVG
PARP1 cleavage (characteristic of apoptosis) [9]: induced
